Data: article PMC4820240 (Angewandte Chemie (International ed. in English), 2016)

Columns and labels:
A549 cells = assay: Cytotoxicity of CPPs towards A549 cells; assay type: cell-based; details: read-out: IC50 A549; toxicity towards A549 cells
HeLa cells = details: read-out: IC50 HeLa; toxicity towards HeLa cells
MCF-7 cells = details: read-out: IC50 MCF-7; toxicity towards MCF-7 cells
human RBCs = details: read-out: EC50 RBCs (hemolysis); freshly isolated human RBCs
[1] = Serum stability in 25% serum solution; details: 25% serum solution as a function of time (Figure 4B legend)

Row | Structure (SMILES) | IC50 (A549 cells) | IC50 (HeLa cells) | IC50 (MCF-7 cells) | EC50 (human RBCs) | t1/2, serum stability [1]
1 | N=C(N)NCCC[C@H](NC(=O)CN)C(=O)N[C@@H](CCCCN)C(=O)N[C@@H](CCCCN)C(=O)N[C@@H](CCCNC(=N)N)C(=O)N[C@@H](CCCNC(=N)N)C(=O)N[C@@H](CCC(N)=O)C(=O)N[C@@H](CCCNC(=N)N)C(=O)N[C@@H](CCCNC(=N)N)C(=O)N[C@@H](CCCNC(=N)N)C(=O)N1CCC[C@H]1C(=O)N1CCC[C@H]1C(=O)N[C@@H](CCC(N)=O)C(N)=O [TAT] | > 1 mM | > 1000 µM | 603 µM | 269 µM | 1.7 h
2 | N=C(N)NCCC[C@H](NC(=O)[C@H](CCCNC(=N)N)NC(=O)[C@H](CCCNC(=N)N)NC(=O)[C@H](CCCNC(=N)N)NC(=O)[C@H](CCCNC(=N)N)NC(=O)[C@H](CCCNC(=N)N)NC(=O)[C@H](CCCNC(=N)N)NC(=O)[C@@H](N)CCCNC(=N)N)C(N)=O [R8] | > 1 mM | 269 µM | 170 µM | 371 µM | 
